# Article PMC9856672, “SGC-CAMKK2-1: A Chemical Probe for CAMKK2” (Cells, 2023)
# Assays:
# CLK1 = molecular target: T1, CLK1 (Homo sapiens, UniProt P49759); test: KINOMEscan 1 μM, CLK1; format: binding; conditions: 1000 nM; Entrez CLK1; read-out: Percent Control
# T1 construct: purchased Eurofins DiscoverX KINOMEscan
# Text: (§1) Supplement cells-12-00287-s001.zip/File S2. KinomeScan data for the CAMKK2 probe and negative control.xlsx, sheet "SGC-CAMKK2-1" | column: Percent Control
# BMPR1B = molecular target: T2, BMPR1B (Homo sapiens, UniProt O00238); test: KINOMEscan 1 μM, BMPR1B; format: binding; conditions: 1000 nM; Entrez BMPR1B; read-out: Percent Control
# T2 construct: purchased Eurofins DiscoverX KINOMEscan
# Text: as §1
# FGR = molecular target: T3, FGR (Homo sapiens, UniProt P09769); test: KINOMEscan 1 μM, FGR; format: binding; conditions: 1000 nM; Entrez FGR; read-out: Percent Control
# T3 construct: purchased Eurofins DiscoverX KINOMEscan
# Text: as §1
# MST4 = molecular target: T4, MST4 (Homo sapiens, UniProt Q9P289); test: KINOMEscan 1 μM, MST4; format: binding; conditions: 1000 nM; Entrez MST4; read-out: Percent Control
# T4 construct: purchased Eurofins DiscoverX KINOMEscan
# Text: as §1
# PIP5K1A = molecular target: T5, PIP5K1A (Homo sapiens, UniProt Q99755); test: DiscoverX KINOMEscan binding assay at 1 μM, PIP5K1A; conditions: Compound Concentration 1000 nM, read-out: Percent Control
# T5 construct: purchased Eurofins DiscoverX KINOMEscan
# Text: as §1
# ULK1 = molecular target: T6, ULK1 (Homo sapiens, UniProt O75385); test: KINOMEscan 1 μM, ULK1; format: binding; conditions: 1000 nM; Entrez ULK1; read-out: Percent Control
# T6 construct: purchased Eurofins DiscoverX KINOMEscan
# Text: as §1
# ACVRL1 = molecular target: T7, ACVRL1 (Homo sapiens, UniProt P37023); test: KINOMEscan 1 μM, ACVRL1; format: binding; conditions: 1000 nM; Entrez ACVRL1; read-out: Percent Control
# T7 construct: purchased Eurofins DiscoverX KINOMEscan
# Text: as §1
# MEK5 = molecular target: T8, MEK5 (Homo sapiens, UniProt Q13163); test: KINOMEscan 1 μM, MEK5; format: binding; conditions: 1000 nM; Entrez MAP2K5; read-out: Percent Control
# T8 construct: purchased Eurofins DiscoverX KINOMEscan
# Text: as §1
# PKN1 = molecular target: T9, PKN1 (Homo sapiens, UniProt Q16512); test: KINOMEscan 1 μM, PKN1; format: binding; conditions: 1000 nM; Entrez PKN1; read-out: Percent Control
# T9 construct: purchased Eurofins DiscoverX KINOMEscan
# Text: as §1
# CSF1R = molecular target: T10, CSF1R (Homo sapiens, UniProt P07333); test: KINOMEscan 1 μM, CSF1R; format: binding; conditions: 1000 nM; Entrez CSF1R; read-out: Percent Control
# T10 construct: purchased Eurofins DiscoverX KINOMEscan
# Text: as §1
# CDK8 = molecular target: T11, CDK8 (Homo sapiens, UniProt P49336); test: KINOMEscan 1 μM, CDK8; format: binding; conditions: 1000 nM; Entrez CDK8; read-out: Percent Control
# T11 construct: purchased Eurofins DiscoverX KINOMEscan
# Text: as §1
# PRKCH = molecular target: T12, PRKCH (Homo sapiens, UniProt P24723); test: DiscoverX KINOMEscan binding assay at 1 μM, PRKCH; conditions: Compound Concentration 1000 nM, read-out: Percent Control
# T12 construct: purchased Eurofins DiscoverX KINOMEscan
# Text: as §1
# PAK4 = molecular target: T13, PAK4 (Homo sapiens, UniProt O96013); test: KINOMEscan 1 μM, PAK4; format: binding; conditions: 1000 nM; Entrez PAK4; read-out: Percent Control
# T13 construct: purchased Eurofins DiscoverX KINOMEscan
# Text: as §1
# HASPIN = molecular target: T14, HASPIN (Homo sapiens, UniProt Q8TF76); test: KINOMEscan 1 μM, HASPIN; format: binding; conditions: 1000 nM; Entrez GSG2; read-out: Percent Control
# T14 construct: purchased Eurofins DiscoverX KINOMEscan
# Text: as §1
# SYK = molecular target: T15, SYK (Homo sapiens, UniProt P43405); test: KINOMEscan 1 μM, SYK; format: binding; conditions: 1000 nM; Entrez SYK; read-out: Percent Control
# T15 construct: purchased Eurofins DiscoverX KINOMEscan
# Text: as §1
# PRP4 = molecular target: T16, PRP4 (Homo sapiens, UniProt Q13523); test: DiscoverX KINOMEscan binding assay at 1 μM, PRP4; conditions: PRP4 (PRPF4B); Compound Concentration 1000 nM; read-out: Percent Control
# T16 construct: purchased Eurofins DiscoverX KINOMEscan
# Text: as §1
# MAST1 = molecular target: T17, MAST1 (Homo sapiens, UniProt Q9Y2H9); test: KINOMEscan 1 μM, MAST1; format: binding; conditions: 1000 nM; Entrez MAST1; read-out: Percent Control
# T17 construct: purchased Eurofins DiscoverX KINOMEscan
# Text: as §1
# FLT3(N841I) = molecular target: T18, FLT3(N841I) (Homo sapiens, UniProt P36888, N841I); test: KINOMEscan 1 μM, FLT3(N841I); format: binding; conditions: 1000 nM; Entrez FLT3; read-out: Percent Control
# T18 construct: purchased Eurofins DiscoverX KINOMEscan
# Text: as §1
# ICK = molecular target: T19, ICK (Homo sapiens, UniProt Q9UPZ9); test: KINOMEscan at 1 μM, ICK; format: binding; conditions: 1000 nM, read-out: Percent Control
# T19 construct: purchased Eurofins DiscoverX KINOMEscan
# Text: (§2) Supplement cells-12-00287-s001.zip/File S2. KinomeScan data for the CAMKK2 probe and negative control.xlsx, sheet "SGC-CAMKK2-1N" | column: Percent Control
# CDKL1 = molecular target: T20, CDKL1 (Homo sapiens, UniProt Q00532); test: KINOMEscan at 1 μM, CDKL1; format: binding; conditions: 1000 nM, read-out: Percent Control
# T20 construct: purchased Eurofins DiscoverX KINOMEscan
# Text: as §2
# DCAMKL2 = molecular target: T21, DCAMKL2 (Homo sapiens, UniProt Q8N568); test: KINOMEscan at 1 μM, DCAMKL2; format: binding; conditions: 1000 nM, read-out: Percent Control
# T21 construct: purchased Eurofins DiscoverX KINOMEscan
# Text: as §2
# TXK = molecular target: T22, TXK (Homo sapiens, UniProt P42681); test: KINOMEscan at 1 μM, TXK; format: binding; conditions: 1000 nM, read-out: Percent Control
# T22 construct: purchased Eurofins DiscoverX KINOMEscan
# Text: as §2
# EPHB1 = molecular target: T23, EPHB1 (Homo sapiens, UniProt P54762); test: KINOMEscan at 1 μM, EPHB1; format: binding; conditions: 1000 nM, read-out: Percent Control
# T23 construct: purchased Eurofins DiscoverX KINOMEscan
# Text: as §2
# [1] = molecular target: T24, RPS6KA4(Kin.Dom.1-N-terminal) (Homo sapiens, UniProt O75676); test: KINOMEscan binding assay at 1 μM, RPS6KA4(Kin.Dom.1-N-terminal); conditions: Compound Concentration 1000 nM; read-out: Percent Control
# T24 construct: RPS6KA4(Kin.Dom.1-N-terminal); purchased Eurofins DiscoverX KINOMEscan
# Text: as §2
# [2] = molecular target: T25, ABL1(Y253F)-phosphorylated (Homo sapiens, UniProt P00519, Y253F); test: KINOMEscan at 1 μM, ABL1(Y253F)-phosphorylated; format: binding; conditions: 1000 nM, read-out: Percent Control
# T25 construct: purchased Eurofins DiscoverX KINOMEscan
# Text: as §2
# LKB1 = molecular target: T26, LKB1 (Homo sapiens, UniProt Q15831); test: KINOMEscan binding assay at 1 μM, LKB1; conditions: Compound Concentration 1000 nM; read-out: Percent Control
# T26 construct: purchased Eurofins DiscoverX KINOMEscan
# Text: as §2
# PIK3CG = molecular target: T27, PIK3CG (Homo sapiens, UniProt P48736); test: KINOMEscan at 1 μM, PIK3CG; format: binding; conditions: 1000 nM, read-out: Percent Control
# T27 construct: purchased Eurofins DiscoverX KINOMEscan
# Text: as §2
# MST3 = molecular target: T28, MST3 (Homo sapiens, UniProt Q9Y6E0); test: KINOMEscan binding assay at 1 μM, MST3; conditions: Compound Concentration 1000 nM; read-out: Percent Control
# T28 construct: purchased Eurofins DiscoverX KINOMEscan
# Text: as §2
# PKN2 = molecular target: T29, PKN2 (Homo sapiens, UniProt Q16513); test: KINOMEscan at 1 μM, PKN2; format: binding; conditions: 1000 nM, read-out: Percent Control
# T29 construct: purchased Eurofins DiscoverX KINOMEscan
# Text: as §2
# IKK-beta = molecular target: T30, IKK-beta (Homo sapiens, UniProt O14920); test: KINOMEscan at 1 μM, IKK-beta; format: binding; conditions: 1000 nM, read-out: Percent Control
# T30 construct: purchased Eurofins DiscoverX KINOMEscan
# Text: as §2
# MEK3 = molecular target: T31, MEK3 (Homo sapiens, UniProt P46734); test: KINOMEscan at 1 μM, MEK3; format: binding; conditions: 1000 nM, read-out: Percent Control
# T31 construct: purchased Eurofins DiscoverX KINOMEscan
# Text: as §2
# AMPK-alpha2 = molecular target: T32, AMPK-alpha2 (Homo sapiens, UniProt P54646); test: KINOMEscan at 1 μM, AMPK-alpha2; format: binding; conditions: 1000 nM, read-out: Percent Control
# T32 construct: purchased Eurofins DiscoverX KINOMEscan
# Text: as §2
# CSNK1E = molecular target: T33, CSNK1E (Homo sapiens, UniProt P49674); test: KINOMEscan at 1 μM, CSNK1E; format: binding; conditions: 1000 nM, read-out: Percent Control
# T33 construct: purchased Eurofins DiscoverX KINOMEscan
# Text: as §2
# T19 sequence (Q9UPZ9 whole entry): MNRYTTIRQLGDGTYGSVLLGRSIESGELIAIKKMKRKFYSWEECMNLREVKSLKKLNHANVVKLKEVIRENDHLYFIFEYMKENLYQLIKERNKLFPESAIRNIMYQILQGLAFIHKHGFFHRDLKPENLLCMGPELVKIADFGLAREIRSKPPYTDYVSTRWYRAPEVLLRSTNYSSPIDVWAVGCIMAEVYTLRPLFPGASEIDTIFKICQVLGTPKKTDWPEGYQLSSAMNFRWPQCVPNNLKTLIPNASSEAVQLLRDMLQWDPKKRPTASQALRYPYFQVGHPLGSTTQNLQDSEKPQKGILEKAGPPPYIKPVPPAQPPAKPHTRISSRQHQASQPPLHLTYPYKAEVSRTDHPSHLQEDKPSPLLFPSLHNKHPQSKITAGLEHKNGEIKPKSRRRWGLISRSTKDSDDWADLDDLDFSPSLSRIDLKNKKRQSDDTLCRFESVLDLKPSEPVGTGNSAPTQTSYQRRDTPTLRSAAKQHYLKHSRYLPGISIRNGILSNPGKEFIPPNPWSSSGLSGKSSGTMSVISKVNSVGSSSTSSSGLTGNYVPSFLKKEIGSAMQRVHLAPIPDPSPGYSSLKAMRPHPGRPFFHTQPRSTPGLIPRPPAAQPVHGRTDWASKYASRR
# T32 sequence (P54646 whole entry): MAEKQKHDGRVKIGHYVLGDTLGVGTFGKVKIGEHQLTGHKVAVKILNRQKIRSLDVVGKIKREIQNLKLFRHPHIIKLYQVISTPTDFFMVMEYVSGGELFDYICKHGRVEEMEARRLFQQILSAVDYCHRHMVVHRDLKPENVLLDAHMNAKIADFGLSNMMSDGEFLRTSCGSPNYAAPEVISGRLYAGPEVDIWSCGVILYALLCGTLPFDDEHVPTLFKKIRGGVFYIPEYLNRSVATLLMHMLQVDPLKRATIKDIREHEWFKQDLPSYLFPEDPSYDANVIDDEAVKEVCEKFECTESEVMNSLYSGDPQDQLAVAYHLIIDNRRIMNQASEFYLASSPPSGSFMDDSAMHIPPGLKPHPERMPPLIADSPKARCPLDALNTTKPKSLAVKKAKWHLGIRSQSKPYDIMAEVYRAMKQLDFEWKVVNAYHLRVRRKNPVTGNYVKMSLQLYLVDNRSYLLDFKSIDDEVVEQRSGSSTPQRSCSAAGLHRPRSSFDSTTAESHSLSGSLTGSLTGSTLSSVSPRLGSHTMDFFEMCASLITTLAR
# T21 sequence (Q8N568 whole entry): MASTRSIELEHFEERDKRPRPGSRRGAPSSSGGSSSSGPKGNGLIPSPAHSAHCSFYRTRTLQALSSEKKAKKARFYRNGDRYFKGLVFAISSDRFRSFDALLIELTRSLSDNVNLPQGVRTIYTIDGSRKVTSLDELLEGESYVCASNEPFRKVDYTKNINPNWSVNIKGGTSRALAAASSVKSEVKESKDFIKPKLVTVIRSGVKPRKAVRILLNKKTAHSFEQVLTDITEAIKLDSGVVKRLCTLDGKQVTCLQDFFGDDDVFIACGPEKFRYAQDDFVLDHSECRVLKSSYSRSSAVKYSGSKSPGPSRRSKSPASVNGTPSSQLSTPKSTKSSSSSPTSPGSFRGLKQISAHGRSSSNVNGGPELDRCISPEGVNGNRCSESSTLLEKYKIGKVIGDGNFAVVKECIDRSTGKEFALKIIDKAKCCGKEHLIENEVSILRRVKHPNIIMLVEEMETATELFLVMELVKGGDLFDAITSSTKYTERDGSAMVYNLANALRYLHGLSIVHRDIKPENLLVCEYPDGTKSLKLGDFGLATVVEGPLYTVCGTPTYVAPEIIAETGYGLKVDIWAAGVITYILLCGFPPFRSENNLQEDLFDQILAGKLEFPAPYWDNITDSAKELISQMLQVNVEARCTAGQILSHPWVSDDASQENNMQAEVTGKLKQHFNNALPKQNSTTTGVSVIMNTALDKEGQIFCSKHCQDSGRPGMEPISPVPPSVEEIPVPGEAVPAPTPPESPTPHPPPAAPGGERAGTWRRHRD
# T10 sequence (P07333 20-972): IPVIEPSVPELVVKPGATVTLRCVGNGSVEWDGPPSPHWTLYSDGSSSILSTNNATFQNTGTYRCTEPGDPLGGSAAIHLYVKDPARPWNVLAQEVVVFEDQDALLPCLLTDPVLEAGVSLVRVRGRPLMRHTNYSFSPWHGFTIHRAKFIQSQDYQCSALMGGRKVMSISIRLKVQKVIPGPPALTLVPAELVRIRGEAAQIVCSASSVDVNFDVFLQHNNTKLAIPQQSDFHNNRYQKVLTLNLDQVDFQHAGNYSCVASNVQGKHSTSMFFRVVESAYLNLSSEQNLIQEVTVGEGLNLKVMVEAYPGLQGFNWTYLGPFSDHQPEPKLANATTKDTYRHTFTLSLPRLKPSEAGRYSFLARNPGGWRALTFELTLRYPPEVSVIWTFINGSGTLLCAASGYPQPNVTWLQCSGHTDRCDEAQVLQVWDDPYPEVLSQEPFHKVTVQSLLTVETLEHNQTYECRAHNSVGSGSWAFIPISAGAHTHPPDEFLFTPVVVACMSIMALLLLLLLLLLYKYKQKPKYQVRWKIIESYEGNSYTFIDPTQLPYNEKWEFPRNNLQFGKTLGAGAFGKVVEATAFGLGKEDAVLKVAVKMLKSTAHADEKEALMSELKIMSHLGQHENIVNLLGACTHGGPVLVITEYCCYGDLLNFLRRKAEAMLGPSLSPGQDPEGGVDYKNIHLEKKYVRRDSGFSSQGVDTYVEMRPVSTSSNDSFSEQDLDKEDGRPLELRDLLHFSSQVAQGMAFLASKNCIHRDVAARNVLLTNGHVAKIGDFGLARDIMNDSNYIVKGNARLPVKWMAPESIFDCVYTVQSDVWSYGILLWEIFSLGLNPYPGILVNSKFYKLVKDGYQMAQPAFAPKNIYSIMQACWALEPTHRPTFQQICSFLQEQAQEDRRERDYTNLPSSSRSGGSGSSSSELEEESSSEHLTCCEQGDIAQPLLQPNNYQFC
# T6 sequence (O75385 whole entry): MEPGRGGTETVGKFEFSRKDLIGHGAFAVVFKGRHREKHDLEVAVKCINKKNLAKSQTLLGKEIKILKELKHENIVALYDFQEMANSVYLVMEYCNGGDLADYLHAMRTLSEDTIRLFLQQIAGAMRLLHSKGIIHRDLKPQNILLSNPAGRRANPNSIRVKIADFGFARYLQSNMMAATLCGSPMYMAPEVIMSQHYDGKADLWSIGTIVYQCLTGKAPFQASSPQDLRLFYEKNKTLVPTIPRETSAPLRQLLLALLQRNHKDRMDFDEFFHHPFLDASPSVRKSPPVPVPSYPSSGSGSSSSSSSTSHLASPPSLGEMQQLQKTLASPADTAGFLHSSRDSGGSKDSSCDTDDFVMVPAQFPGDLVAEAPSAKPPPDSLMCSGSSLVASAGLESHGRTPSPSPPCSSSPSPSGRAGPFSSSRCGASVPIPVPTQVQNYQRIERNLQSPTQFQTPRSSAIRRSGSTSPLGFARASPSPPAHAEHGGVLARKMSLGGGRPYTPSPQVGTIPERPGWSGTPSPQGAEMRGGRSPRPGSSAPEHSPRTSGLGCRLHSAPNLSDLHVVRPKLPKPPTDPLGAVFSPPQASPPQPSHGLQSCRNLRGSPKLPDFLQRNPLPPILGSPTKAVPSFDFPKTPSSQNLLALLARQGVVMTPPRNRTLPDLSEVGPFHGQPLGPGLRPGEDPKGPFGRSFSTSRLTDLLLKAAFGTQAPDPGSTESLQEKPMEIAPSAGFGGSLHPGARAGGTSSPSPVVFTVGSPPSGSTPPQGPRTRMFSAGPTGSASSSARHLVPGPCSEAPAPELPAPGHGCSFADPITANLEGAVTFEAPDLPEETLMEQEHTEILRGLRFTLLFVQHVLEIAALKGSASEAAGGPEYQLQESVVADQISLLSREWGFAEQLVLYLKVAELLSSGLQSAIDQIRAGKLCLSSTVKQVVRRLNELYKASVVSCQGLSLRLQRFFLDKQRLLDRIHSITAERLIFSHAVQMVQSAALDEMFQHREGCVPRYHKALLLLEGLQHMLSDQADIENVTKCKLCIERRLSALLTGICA
# T29 sequence (Q16513 whole entry): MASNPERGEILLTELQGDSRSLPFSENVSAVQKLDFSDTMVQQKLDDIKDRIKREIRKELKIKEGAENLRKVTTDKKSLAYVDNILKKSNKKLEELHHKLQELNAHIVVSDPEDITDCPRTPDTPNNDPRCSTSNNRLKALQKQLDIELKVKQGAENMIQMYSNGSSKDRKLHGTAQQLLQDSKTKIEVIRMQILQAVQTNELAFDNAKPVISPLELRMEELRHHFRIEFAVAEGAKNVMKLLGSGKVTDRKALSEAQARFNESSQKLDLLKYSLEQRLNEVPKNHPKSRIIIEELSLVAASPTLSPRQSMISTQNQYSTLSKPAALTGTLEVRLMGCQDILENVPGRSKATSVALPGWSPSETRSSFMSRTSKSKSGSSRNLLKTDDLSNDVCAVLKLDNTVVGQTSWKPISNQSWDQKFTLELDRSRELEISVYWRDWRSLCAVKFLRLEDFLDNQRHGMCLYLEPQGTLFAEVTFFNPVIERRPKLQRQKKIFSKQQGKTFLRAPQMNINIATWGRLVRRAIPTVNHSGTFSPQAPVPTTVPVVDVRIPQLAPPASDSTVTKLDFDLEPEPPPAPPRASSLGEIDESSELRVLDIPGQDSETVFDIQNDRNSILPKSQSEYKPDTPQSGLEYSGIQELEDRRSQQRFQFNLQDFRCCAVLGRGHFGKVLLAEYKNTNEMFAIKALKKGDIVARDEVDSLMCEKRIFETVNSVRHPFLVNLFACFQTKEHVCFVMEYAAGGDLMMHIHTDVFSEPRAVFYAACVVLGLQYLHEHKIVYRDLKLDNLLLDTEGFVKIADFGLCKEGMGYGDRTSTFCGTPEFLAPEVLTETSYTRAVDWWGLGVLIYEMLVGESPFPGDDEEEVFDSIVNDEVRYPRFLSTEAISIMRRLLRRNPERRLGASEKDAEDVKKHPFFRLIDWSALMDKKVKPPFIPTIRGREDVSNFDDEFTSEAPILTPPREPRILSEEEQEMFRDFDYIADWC
structure (smiles),measurement,setting,value
Cc1cccc(-c2cnc3occ(-c4ccc(C(=O)O)c(C5CCCC5)c4)c3c2)c1 [SGC-CAMKK2-1 (YL-36)],remaining binding at 1 µM,CLK1,100%
same,remaining binding at 1 µM,BMPR1B,100%
same,remaining binding at 1 µM,FGR,100%
same,remaining binding at 1 µM,MST4,100%
same,remaining binding at 1 µM,PIP5K1A,100%
same,remaining binding at 1 µM,ULK1,62%
same,remaining binding at 1 µM,ACVRL1,100%
same,remaining binding at 1 µM,MEK5,84%
same,remaining binding at 1 µM,PKN1,84%
same,remaining binding at 1 µM,CSF1R,100%
same,remaining binding at 1 µM,CDK8,72%
same,remaining binding at 1 µM,PRKCH,100%
same,remaining binding at 1 µM,PAK4,69%
same,remaining binding at 1 µM,HASPIN,100%
same,remaining binding at 1 µM,SYK,85%
same,remaining binding at 1 µM,PRP4,100%
same,remaining binding at 1 µM,MAST1,65%
same,remaining binding at 1 µM,FLT3(N841I),95%
O=C(O)c1ccc(-c2coc3ncc(-c4ccccc4)cc23)cc1Cl [SGC-CAMKK2-1N (UNC-YL-83)],remaining binding at 1 µM,ICK,71%
same,remaining binding at 1 µM,CDKL1,72%
same,remaining binding at 1 µM,DCAMKL2,100%
same,remaining binding at 1 µM,TXK,53%
same,remaining binding at 1 µM,EPHB1,91%
same,remaining binding at 1 µM,[1],100%
same,remaining binding at 1 µM,[2],69%
same,remaining binding at 1 µM,LKB1,100%
same,remaining binding at 1 µM,PIK3CG,66%
same,remaining binding at 1 µM,MST3,100%
same,remaining binding at 1 µM,PKN2,83%
same,remaining binding at 1 µM,IKK-beta,87%
same,remaining binding at 1 µM,MEK3,89%
same,remaining binding at 1 µM,AMPK-alpha2,100%
same,remaining binding at 1 µM,CSNK1E,92%
